Assay results: ChEMBL document CHEMBL1147560, “Thioxanthene-derived analogs as sigma(1) receptor ligands” (Bioorg Med Chem Lett, 2004)

How the values were obtained:
[1] = Binding affinity for Sigma receptor type 1,using [3H](+)-pentazocine as radioligand
Sigma 2 receptor = assay: Binding affinity of compound was measured towards Sigma receptor type 2 by using [3H]ditolylguanidine as radioligand; design: species or system Cavia porcellus
[2] = biological target: T1, Sigma non-opioid intracellular receptor 1 (Homo sapiens, UniProt Q99720); assay: Binding affinity for Sigma receptor type 1,using [3H](+)-pentazocine as radioligand
T1 sequence (Q99720 whole entry): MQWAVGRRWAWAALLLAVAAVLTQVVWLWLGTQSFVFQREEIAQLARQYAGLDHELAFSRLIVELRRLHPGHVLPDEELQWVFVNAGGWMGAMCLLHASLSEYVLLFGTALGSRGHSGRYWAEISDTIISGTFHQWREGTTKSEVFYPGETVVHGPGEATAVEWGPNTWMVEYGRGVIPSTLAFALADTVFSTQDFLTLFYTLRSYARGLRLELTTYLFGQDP

[3] = biological target: T1, Sigma non-opioid intracellular receptor 1; assay: Selectivity for sigma 2 compared to sigma 1 receptor

Ki [1] [nM]	Ki (Sigma 2 receptor) [nM]	Ki [2] [nM]	Selectivity [3]	Selectivity ([3]; Cavia porcellus)	Structure (SMILES)
0.25					CN(CCCCCc1ccccc1)CCc1ccccc1
	142				C(CCCNCCc1ccccc1)=C(c1ccccc1)c1ccccc1
		0.07			CC1CCN(CCCCCc2ccccc2)CC1
	17	0.09	189		CC1CCN(CCCCC(c2ccccc2)c2ccccc2)CC1
	25				CC1CCN(CCCC=C(c2ccccc2)c2ccccc2)CC1
	800	12	67		CCN(CC)CCCCC(O)(c1ccccc1)c1ccccc1
	41	0.89	46		CN(CCCC=C(c1ccccc1)c1ccccc1)CCc1ccccc1
	28	1.1	25		CC1CCN(CCCC(c2ccccc2)c2ccccc2)CC1
	51	1.4	36		CCN(CC)CCCCC(c1ccccc1)c1ccccc1
	2540	29	88		CN1CCN(CC/C=C\c2ccccc2)CC1
	1100				CCCC(C(=O)OCCN(CC)CC)(c1ccccc1)c1ccccc1 [PROADIFEN]
	26	0.8	33		CC1CCN(CCC=C2c3ccccc3Sc3ccccc32)CC1
	900	20	45		CN1CCN(CCCCc2ccccc2)CC1
	32	0.48	67		CN(CCCCC(c1ccccc1)c1ccccc1)CCc1ccccc1
	28	1.9	15		CC1CCN(CCC=C(c2ccccc2)c2ccccc2)CC1
	100	0.66		152	c1ccc(CCNCCCCC(c2ccccc2)c2ccccc2)cc1
	1300	29	45		CN1CCN(CC/C=C/c2ccccc2)CC1

Structure (SMILES)	Ki [1] [nM]	Ki (Sigma 2 receptor) [nM]	Ki [2] [nM]	Selectivity [3]	Selectivity ([3]; Cavia porcellus)
CCN(CC)CCOC(=O)C(O)(c1ccccc1)c1ccccc1 [BENACTYZINE]			> 1000		
